According to patent US20090163715A1, “Intermediate in Production of [2-(3,3,5,5-Tetramethylcyclohexyl)phenyl]Piperazine Compound” (EISAI R&D MANAGEMENT CO., LTD., priority 2005, published 2009):

Columns and labels:
Jurkat cells = assay: Jurkat cell adhesion system (PMA-stimulated adhesion to immobilized human fibronectin); type: cell-based; details: Jurkat cells on human fibronectin-coated 96-well plate, PMA stimulation, 37° C. for 45-60 minutes; read-out: IC50 (concentration which inhibited the increase in the number of adhered cells by the PMA-stimulation by 50%)
Description: Human fibronectin (Becton Dickinson Biosciences) was diluted with phosphate-buffered saline (hereinafter abbreviated as PBS; Sigma) to 0.1-0.01 μg/mL, and the diluted solution was added to a 96-well plate (Becton Dickinson) at 50 μL/well, and allowed to stand overnight at 4° C. On the following day, the supernatant was removed from the plate, and then PBS containing 1% bovine serum albumin (hereinafter abbreviated as BSA; Sigma) was added thereto at 100 μL/well and incubation was performed at 37° C. for 2 hours in a CO2 incubator (Hirasawa).
The supernatant was removed from each plate and Jurkat cells suspended in RPMI-1640 (Sigma) containing 1 mg/mL BSA were added at 80 μL/well for 2.5×10^5 cells/well. The compound (B) diluted to different concentrations with RPMI-1640 containing […] BSA was immediately added at 10 μL/well, and then 100 nM phorbol myristate acetate (hereinafter abbreviated as PMA; Sigma) in RPMI-1640 containing 1 mg/mL BSA was added at 10 μL/well and the plate was incubated in a CO2 incubator at 37° C. for 45-60 minutes. […] After incubation, 50 mM glycine buffer (pH 10.4) containing 5 mM EDTA was added at 90 μL/well, and the absorbance at 405 nm was measured with an EL340 Automated Microplate Reader (BIO-TEK) to determine the adhered cell count.

[1] = test system: human peripheral blood neutrophils; assay: Human peripheral blood neutrophil adhesion system (PMA-stimulated adhesion to HUVEC immobilized plate); type: cell-based; details: 0.75 h; BCECF-AM labeled human neutrophils on HUVEC immobilized plate, PMA stimulation, 37° C. for 45 minutes; read-out: IC50 (concentration which inhibited the increase in the number of adhered cells by the PMA-stimulation by 50%)
Description: To a plastic centrifugation tube containing 100 units of heparin sodium (Shimizu Pharmaceutical) was added 25 mL of fresh blood sampled from a healthy human. After adding and mixing therewith 8 mL of physiological saline (Otsuka Pharmaceutical) containing 6% Dextran (Nacalai), the mixture was allowed to stand at room temperature for 45 minutes for sedimentation of the erythrocytes. The resultant supernatant was transferred to another plastic centrifugation tube and combined with an equivalent volume of PBS, and then centrifuged at 1600 rpm for 7 minutes at room temperature. The obtained hematocyte fraction was suspended in 4 mL of PBS, and the suspension was superposed on 4 mL of Ficoll-Paque™ PLUS (Amersham Biosciences). […]
To 6.5 mL of RPMI-1640 medium (Sigma) containing 1 mg/mL of BSA were added 0.5 mL of a suspension of BCECF-AM labeled neutrophils at 5×10^7 cells/mL stored in ice, which was mixed, and the mixture was added at 80 μL/well to a HUVEC immobilized plate. […] The supernatant was removed from the plate, which was then washed several times with RPMI-1640 at 100 μL/well, and then PBS containing 0.1% NP-40 (Calbiochem) was added thereto at 100 μL/well and the fluorescent intensity was measured with an ARVO™SX 1420 multi label counter (Wallac) to determine the number of adhered cells.

IC50 (Jurkat cells): 4.7 µM
IC50 [1]: 7.1 µM
SMILES: CC1(C)CC(c2ccccc2N2CCN(CC3CC3)CC2)CC(C)(C)C1 [compound (B), 1-Cyclopropylmethyl-4-[2-(3,3,5,5-tetramethylcyclohexyl)phenyl]piperazine methanesulfonate]
